± gives the expanded uncertainty stated by the source.
How the values were obtained:
[1] = xn = mol fraction of the nth substance listed; settings: 101 kPa, Liquid
[2] = refractive index (Na D-line) (dimensionless); xn = mol fraction of the nth substance listed; settings: 101 kPa, Liquid, Standard Abbe refractometry

CC(=O)OCCC(C)C [3-methylbutyl ethanoate] + CCc1ccccc1
Settings	mass density, [1] [kg/m3]	refractive index, [2]	viscosity, [1] [mPa·s]
303.15 K, x1 = 0.0851	856.9 ± 3.5	1.4802 ± 0.0006	0.597 ± 0.014
303.15 K, x1 = 0.1684	858 ± 3.5	1.4701 ± 0.0006	0.605 ± 0.014
303.15 K, x1 = 0.2613	858.4 ± 3.5	1.4593 ± 0.0006	0.615 ± 0.014
303.15 K, x1 = 0.3719	859 ± 3.5	1.4471 ± 0.0006	0.629 ± 0.014
303.15 K, x1 = 0.4584	859.6 ± 3.5	1.4376 ± 0.0006	0.639 ± 0.014
303.15 K, x1 = 0.538	860.1 ± 3.5	1.4291 ± 0.0006	0.649 ± 0.015
303.15 K, x1 = 0.6532	861.1 ± 3.6	1.4177 ± 0.0006	0.666 ± 0.015
303.15 K, x1 = 0.7513	861.6 ± 3.6	1.4112 ± 0.0006	0.681 ± 0.015
303.15 K, x1 = 0.8475	862 ± 3.6	1.4041 ± 0.0006	0.703 ± 0.015
303.15 K, x1 = 0.9401	862.3 ± 3.6	1.3983 ± 0.0006	0.726 ± 0.015
313.15 K, x1 = 0.0851	848.8 ± 3.9	1.4781 ± 0.0006	0.533 ± 0.014
313.15 K, x1 = 0.1684	849.1 ± 3.9	1.4676 ± 0.0006	0.541 ± 0.014
313.15 K, x1 = 0.2613	849.7 ± 3.9	1.4565 ± 0.0006	0.549 ± 0.014
313.15 K, x1 = 0.3719	850.3 ± 3.9	1.4425 ± 0.0006	0.559 ± 0.014
313.15 K, x1 = 0.4584	850.9 ± 3.9	1.4342 ± 0.0006	0.567 ± 0.014
313.15 K, x1 = 0.538	851.3 ± 3.9	1.4276 ± 0.0006	0.575 ± 0.014
313.15 K, x1 = 0.6532	851.6 ± 3.9	1.4168 ± 0.0006	0.588 ± 0.014
313.15 K, x1 = 0.7513	851.8 ± 3.9	1.4099 ± 0.0006	0.6 ± 0.014
313.15 K, x1 = 0.8475	852.1 ± 3.9	1.4035 ± 0.0006	0.619 ± 0.014
313.15 K, x1 = 0.9401	852.3 ± 3.9	1.3965 ± 0.0006	0.638 ± 0.014

CC(=O)OCCC(C)C [3-methylbutyl ethanoate] + Cc1ccc(C)cc1
Settings	mass density, [1] [kg/m3]	refractive index, [2]	viscosity, [1] [mPa·s]
303.15 K, x1 = 0.096	852.4 ± 3.9	1.4821 ± 0.0007	0.573 ± 0.015
303.15 K, x1 = 0.1713	853.6 ± 3.9	1.4749 ± 0.0007	0.584 ± 0.015
303.15 K, x1 = 0.2823	854.5 ± 3.8	1.4645 ± 0.0007	0.6 ± 0.015
303.15 K, x1 = 0.3819	856.7 ± 3.8	1.4554 ± 0.0006	0.617 ± 0.015
303.15 K, x1 = 0.4503	857.8 ± 3.7	1.4495 ± 0.0006	0.628 ± 0.015
303.15 K, x1 = 0.5438	858.1 ± 3.7	1.4397 ± 0.0006	0.645 ± 0.015
303.15 K, x1 = 0.6472	858.7 ± 3.7	1.4293 ± 0.0006	0.664 ± 0.015
303.15 K, x1 = 0.7467	859.7 ± 3.6	1.4193 ± 0.0006	0.684 ± 0.015
303.15 K, x1 = 0.8487	860.1 ± 3.6	1.41 ± 0.0006	0.704 ± 0.015
303.15 K, x1 = 0.9398	861 ± 3.6	1.4017 ± 0.0006	0.722 ± 0.015
313.15 K, x1 = 0.096	844.8 ± 4.2	1.4811 ± 0.0007	0.517 ± 0.014
313.15 K, x1 = 0.1713	845.9 ± 4.2	1.474 ± 0.0007	0.525 ± 0.014
313.15 K, x1 = 0.2823	846.3 ± 4.1	1.4621 ± 0.0007	0.537 ± 0.014
313.15 K, x1 = 0.3819	847.5 ± 4.1	1.4523 ± 0.0006	0.549 ± 0.014
313.15 K, x1 = 0.4503	848.7 ± 4.1	1.4454 ± 0.0006	0.556 ± 0.014
313.15 K, x1 = 0.5438	849.6 ± 4	1.4356 ± 0.0006	0.57 ± 0.014
313.15 K, x1 = 0.6472	850.1 ± 4	1.4248 ± 0.0006	0.584 ± 0.014
313.15 K, x1 = 0.7467	850.7 ± 4	1.4147 ± 0.0006	0.6 ± 0.014
313.15 K, x1 = 0.8487	851.3 ± 3.9	1.4056 ± 0.0006	0.615 ± 0.014
313.15 K, x1 = 0.9398	851.6 ± 3.9	1.3984 ± 0.0006	0.634 ± 0.014

CC(=O)OCCC(C)C [3-methylbutyl ethanoate] + Cc1cccc(C)c1
Settings	mass density, [1] [kg/m3]	refractive index, [2]	viscosity, [1] [mPa·s]
303.15 K, x1 = 0.0877	855.8 ± 3.9	1.483 ± 0.0007	0.561 ± 0.015
303.15 K, x1 = 0.1726	856.5 ± 3.9	1.4745 ± 0.0007	0.572 ± 0.015
303.15 K, x1 = 0.3736	858.2 ± 3.8	1.4549 ± 0.0006	0.605 ± 0.015
303.15 K, x1 = 0.4421	858.4 ± 3.8	1.4487 ± 0.0006	0.619 ± 0.015
303.15 K, x1 = 0.5478	858.8 ± 3.7	1.4398 ± 0.0006	0.643 ± 0.015
303.15 K, x1 = 0.657	859.3 ± 3.7	1.4297 ± 0.0006	0.666 ± 0.015
303.15 K, x1 = 0.7478	860.1 ± 3.6	1.4207 ± 0.0006	0.687 ± 0.015
303.15 K, x1 = 0.8501	861 ± 3.6	1.4101 ± 0.0006	0.708 ± 0.015
303.15 K, x1 = 0.9465	861.9 ± 3.6	1.4014 ± 0.0006	0.727 ± 0.015
313.15 K, x1 = 0.0877	847.3 ± 4.2	1.4811 ± 0.0007	0.502 ± 0.014
313.15 K, x1 = 0.1726	848.2 ± 4.2	1.4724 ± 0.0007	0.51 ± 0.014
313.15 K, x1 = 0.3736	849.5 ± 4.1	1.452 ± 0.0006	0.538 ± 0.014
313.15 K, x1 = 0.4421	849.6 ± 4.1	1.4456 ± 0.0006	0.549 ± 0.014
313.15 K, x1 = 0.5478	849.8 ± 4	1.435 ± 0.0006	0.568 ± 0.014
313.15 K, x1 = 0.657	850.3 ± 4	1.4248 ± 0.0006	0.587 ± 0.014
313.15 K, x1 = 0.7478	851.1 ± 4	1.4157 ± 0.0006	0.603 ± 0.014
313.15 K, x1 = 0.8501	851.9 ± 3.9	1.4056 ± 0.0006	0.623 ± 0.014
313.15 K, x1 = 0.9465	852.8 ± 3.9	1.3985 ± 0.0006	0.638 ± 0.014

Source: the NIST ThermoML archive (doi:10.1021/je800325d)
